The values that follow come from US12173309B2, “Compounds for increasing genome editing efficiency” (Max-Planck-Gesellschaft zur Förderung der Wissenschaften …, priority 2017, dated 2024).

Each structure is given as a SMILES string. “Also recorded” adds a separate entry of the source.

For one series, the system named is mouse ESCs. Conditions: literature; dsODN donors, control 17.7%; cited from earlier work.
The next series relates to HEK293A cells. Conditions: literature; RS-1 with dsODN donors, control 3.5%; cited from earlier work.
Series [1] concerns 409-B2 iCRISPR-Cas9 iPSCs. Briefly: PGE efficiency with iCRISPR Cas9 and ssODN donors. The class given is cell-based, human. The conditions noted are these: 0.01 μM TSA, 0.5 μM MLN4924, 1 μM NSC 19630, 20 μM AICAR, 1 μM RS-1, 1 μM Resveratrol, 1 μM SCR7, 5 μM L755507, 5 μM STL127685, 20 μM B02. The method, then:
(§1) FIG. 1: Genome editing and analysis flowchart. iCRISPR 409-B2 iPSCs are treated with 2 μg/ml doxycycline at least for 2 days to induce Cas9 or Cas9D10A expression. Reverse transfection with RNAiMAX, gRNA (7.5 nM each), ssODN (10 nM) and the small molecules to be evaluated is carried out in a 96 well plate for 1 day. The amount of cells used gives ˜80% confluency. Cells are then expanded for 3 days with regular media change. After harvest follows DNA extraction, PCR amplification of targeted loci, Illumina sequencing and CRISPResso (Pinello et al. 2016) sequence analysis for amount of indels and precise genome editing.
(§2) Cells were incubated with media containing 2 μg/ml doxycycline (Clontech, 631311) 2 days prior to lipofection. Lipofection (reverse transfection) was done using the alt-CRISPR manufacturer's protocol (IDT) with a final concentration of 7.5 nM of each gRNA and 10 nM of the respective ssODN. In brief, 0.75 μl RNAiMAX (Invitrogen, 13778075) and the respective oligonucleotides were separately diluted in 25 μl OPTI-MEM (Gibco, 1985-062) each and incubated at room temperature for 5 min. Both dilutions were mixed to yield 50 μl of OPTI-MEM including RNAiMAX, gRNAs and ssODNs. The lipofection mix was incubated for 20-30 min at room temperature. During incubation cells were dissociated using EDTA for 5 min and counted using the Countess Automated Cell Counter (Invitrogen). The lipofection mix, 100 μl containing 25.000 dissociated cells in mTeSR1 supplemented with Y-27632, 2 μg/ml doxycycline and the respective small molecule(s) to be tested were throughoutly mixed and put in one well of a 96 well covered with Matrigel Matrix (Corning, 35248). Media was exchanged to regular mTeSR1 media after 24 hours.
(§3) Three days after lipofection cells were dissociated using Accutase (SIGMA, A6964), pelleted, and resuspended in 15 μl QuickExtract (Epicentre, QE0905T). Incubation at 65° C. for 10 min, 68° C. for 5 min and finally 98° C. for 5 min was performed to yield ssDNA as a PCR template. Primers for each targeted loci of CALD1, KATNA1 and SLITRK1 containing adapters for Illumina sequencing were ordered from IDT (Coralville, USA). PCR was done in a T100 Thermal Cycler (Bio-Rad) using the KAPA2G Robust PCR Kit (Peqlab, 07-KK5532-03) with supplied buffer B and 3 μl of cell extract in a total volume of 25 μl. The thermal cycling profile of the PCR was: 95° C. 3 min; 34×(95° 15 sec, 65° C. 15 sec, 72° C. 15 sec); 72° C. 60 sec. P5 and P7 Illumina adapters with sample specific indices were added in a second PCR reaction (Kircher et al. 2012) using Phusion HF MasterMix (Thermo Scientific, F-531L) and 0.3 μl of the first PCR product. The thermal cycling profile of the PCR was: 98° C. 30 sec; 25× (98° 10 sec, 58° C. 10 sec, 72° C. 20 sec); 72° C. 5 min. Amplifications were verified by size separating agarose gel electrophoresis using EX gels (Invitrogen, G4010-11). The indexed amplicons were purified using Solid Phase Reversible Immobilization (SPRI) beads (Meyer, Kircher 2010). Double-indexed libraries were sequenced on a MiSeq (Illumina) giving paired-end sequences of 2×150 bp. After base calling using Bustard (Illumina) adapters were trimmed using leeHom (Renaud et al. 2014).
(§4) CRISPresso (Pinello et al. 2016) was used to analyse sequencing data from CRISPR genome editing experiments for percentage of wildtype, targeted nucleotide substitutions (TNS), indels and mix of TNS and indels. Parameters used for analysis were ‘-w 20’, ‘--min_identity_score 70’ and ‘--ignore_substitutions’ (analysis was restricted to amplicons with a minimum of 70% similarity to the wildtype sequence and to a window of 20 bp from each gRNA; substitutions were ignored, as sequencing errors would be falsely characterized as NHEJ-events). Sequencing data from colonies after single cell seeding (FIGS. 3B and C) was further analyzed by evaluating the actual read sequences using SAMtools. Clonal colonies were differentiated from mixed colonies using sequence read proportions. […]

Series [2] relates to 409-B2 iCRISPR-Cas9D10A iPSCs. Briefly: Precise genome editing (PGE) efficiency with iCRISPR Cas9D10A double nicking and ssODN donors, Illumina sequencing/CRISPResso. The class given is cell-based, human. Conditions: for effect on PGE frequency over CALD1, KATNA1 and SLITRK1 compared to controls: 1 μM NSC 19630, 20 μM AICAR, 1 μM RS-1, 1 μM Resveratrol, 1 μM SCR7, 5 μM L755507, 5 μM STL127685, 20 μM B02; for effect on PGE of further addition to the mix of NU7026, TSA and MLN4924: all loci, 5 μM NSC 15520, then 1 μM NSC 19630, 20 μM AICAR, 1 μM RS-1 (FIG. 5A); for effect on PGE efficiency with ssODN (discussion summary): nuclease not stated; for PGE increase (mean change vs control): 20 μM NU7026, 0.01 μM TSA, 0.5 μM MLN4924, 5 μM NSC 15520, CRISPY mix = all four. The protocol: as §1, §2, §3, §4

In the next series the test system is rabbit embryos. The conditions noted are these: literature; RS-1 with dsODN donors, control 4.4%; cited from earlier work.
In a further series the test system is human stem cells. The conditions noted are these: literature; cited from earlier work.
The target in another series is human LIG4 (Homo sapiens, UniProt P49917). Conditions: literature (Greco et al. 2016); cited from earlier work.
Series [3] has as its system porcine fetal fibroblasts. Conditions: literature; ssODN donors; cited from earlier work.
For the next series, the system named is U2OS cells. Conditions: literature; dsODN donors, control 1.9%; cited from earlier work.
In series [4] the test system is 409-B2 iCRISPR Cas9D10A iPSCs. Briefly: Cell death by phase contrast light microscopy in first concentration screen. Format: cell-based, human. The source says: FIGS. 3A-3D: First screen for solvent effect and influence of different small molecule concentrations on genome edit-ing of CALD1, KATNA1 and SLITRK1 with iCRISPR Cas9D10A. Shown are precise genome editing (PGE) and indels with green circles (triangles) or blue diamonds, respectively. Each symbol represents a technical replicate. The respective means are shown as a black line. Each skull indicates cell death of up to 20% determined by phase contrast light microscopy.

human LIG4, sequence (P49917 whole entry): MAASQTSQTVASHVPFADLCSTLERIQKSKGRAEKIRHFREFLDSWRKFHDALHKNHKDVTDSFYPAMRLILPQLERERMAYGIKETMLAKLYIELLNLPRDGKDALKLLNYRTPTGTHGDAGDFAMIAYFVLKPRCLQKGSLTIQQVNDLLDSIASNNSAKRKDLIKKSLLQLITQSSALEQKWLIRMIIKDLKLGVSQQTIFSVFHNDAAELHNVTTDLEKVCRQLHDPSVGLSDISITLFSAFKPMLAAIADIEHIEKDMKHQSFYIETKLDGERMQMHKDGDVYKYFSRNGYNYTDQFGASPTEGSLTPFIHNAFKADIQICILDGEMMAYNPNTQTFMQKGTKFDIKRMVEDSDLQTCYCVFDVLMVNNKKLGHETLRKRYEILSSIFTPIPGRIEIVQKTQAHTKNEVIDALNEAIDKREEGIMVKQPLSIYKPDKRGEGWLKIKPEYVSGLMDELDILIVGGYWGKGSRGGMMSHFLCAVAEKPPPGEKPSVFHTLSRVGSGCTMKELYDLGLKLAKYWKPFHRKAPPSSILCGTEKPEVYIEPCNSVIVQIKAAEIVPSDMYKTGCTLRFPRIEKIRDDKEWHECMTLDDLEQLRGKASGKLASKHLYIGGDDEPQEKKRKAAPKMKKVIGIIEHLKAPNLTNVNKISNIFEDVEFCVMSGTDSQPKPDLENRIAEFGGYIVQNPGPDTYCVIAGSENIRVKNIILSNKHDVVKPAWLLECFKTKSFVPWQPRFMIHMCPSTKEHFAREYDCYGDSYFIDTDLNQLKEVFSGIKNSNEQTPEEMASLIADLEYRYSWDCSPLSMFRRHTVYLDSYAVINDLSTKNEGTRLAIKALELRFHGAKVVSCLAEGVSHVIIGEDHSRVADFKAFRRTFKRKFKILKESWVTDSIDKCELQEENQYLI
human LIG4, sequence (Q13426 whole entry partner): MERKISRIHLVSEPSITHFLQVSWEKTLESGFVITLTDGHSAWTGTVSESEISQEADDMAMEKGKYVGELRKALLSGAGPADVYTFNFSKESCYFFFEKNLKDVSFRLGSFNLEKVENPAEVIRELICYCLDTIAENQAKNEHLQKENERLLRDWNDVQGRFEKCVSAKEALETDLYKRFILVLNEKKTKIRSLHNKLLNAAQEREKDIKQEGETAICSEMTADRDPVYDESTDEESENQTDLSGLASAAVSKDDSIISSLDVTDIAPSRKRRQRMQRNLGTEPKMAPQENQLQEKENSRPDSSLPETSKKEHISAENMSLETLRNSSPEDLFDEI

As to `CCCCCCNC(=O)Nc1ccc(S(=O)(=O)Nc2ccc(CCNC[C@H](O)COc3ccc(O)cc3)cc2)cc1` [L755507], the PGE in the series with mouse ESCs was 33.3%; in the series with HEK293A cells it was “did not find significant stimulation”. For the same compound, the “effect on PGE frequency over CALD1, KATNA1 and SLITRK1 compared to controls” value was “no effect or a diminishing effect; also recorded: no clear effect” in series [1] and “no clear effect” in [2] (Cas9D10A).
Regarding `O=c1[nH]c(=S)[nH]c(N=Cc2ccccc2)c1N=Cc1ccccc1` [SCR7], the PGE result in the series on HEK293A cells was “marginal but significant increase”; in the series with rabbit embryos, “no significant effect”. Besides, the figures for the “effect on PGE frequency over CALD1, KATNA1 and SLITRK1 compared to controls” value in series [1] and in series [2] (Cas9D10A) were “no effect or a diminishing effect; also recorded: no clear effect” and “no clear effect”, respectively. Further, in the series on human stem cells, the “effect on PGE” value is “no significant effect”. Moreover, on human LIG4, the “inhibition of human LIG4” value is “neither selective nor potent”.
`NC(=O)c1ncn([C@@H]2O[C@H](CO)[C@@H](O)[C@H]2O)c1N` [AICAR]: the “effect on PGE frequency over CALD1, KATNA1 and SLITRK1 compared to controls” value in series [1] was “no effect or a diminishing effect”; in series [2] (Cas9D10A), “no clear effect”. Also, in series [2] (Cas9D10A), the “effect on PGE of further addition to the mix of NU7026, TSA and MLN4924” value was “no measurable effect”. For the same compound, in [2], the “effect on PGE efficiency with ssODN (discussion summary)” value (“effect on PGE efficiency with ssODN” below) was “no effect”.
Consider `O=C(Nc1ccc(Br)cc1)c1ccc(Br)c(S(=O)(=O)NCc2ccccc2)c1` [RS-1], for which the PGE with HEK293A cells is given as 21%; with rabbit embryos it was 26.1%; in the series with U2OS cells it was 2.4%. Further, the “effect on PGE frequency over CALD1, KATNA1 and SLITRK1 compared to controls” value was “no effect or a diminishing effect; also recorded: no clear effect” in series [1] and “no clear effect” in series [2] (Cas9D10A). For the same compound, in series [3], the “effect on PGE efficiency” value is recorded as “No effect”. Further, the “effect on PGE of further addition to the mix of NU7026, TSA and MLN4924” value in [2] (Cas9D10A) was “no measurable effect”. In addition, the “effect on PGE efficiency with ssODN” value in [2] is given as “no beneficial effect”.
For `CC(/C=C/C(=O)NO)=C\[C@@H](C)C(=O)c1ccc(N(C)C)cc1` [TSA, Trichostatin A], the “effect on PGE frequency over CALD1, KATNA1 and SLITRK1 compared to controls” value in series [1] was “no enhancing effect”. Further, the “PGE increase (mean change vs control)” value is recorded as 1.5 fold in series [2] (CALD1, Cas9D10A); 2.2 fold in series [2] (KATNA1, Cas9D10A); 1.8 fold in [2] (SLITRK1, Cas9D10A). Further, the “higher PGE frequency than without the molecules” value in series [2] (Cas9D10A, pooled across CALD1, KATNA1, SLITRK1 (FIG. 5A), p<0.001) is 1.8 fold. For the same compound, the cell death result in series [4] (0.1 μM) and in series [4] (1 μM) was “All cells died” in each case.
With `O=c1c2ccccc2nc(/C=C/c2cccnc2)n1Cc1ccccc1` [B02], the “effect on PGE frequency over CALD1, KATNA1 and SLITRK1 compared to controls” value in [1] and in series [2] (Cas9D10A) was “halved” throughout. In addition, in series [2], the “effect on PGE efficiency with ssODN” value was “halved”.
With `Oc1ccc(C=Cc2cc(O)cc(O)c2)cc1` [Resveratrol], the “effect on PGE frequency over CALD1, KATNA1 and SLITRK1 compared to controls” value is “no effect or a diminishing effect” in series [1] and “no clear effect” in series [2] (Cas9D10A).
